Measured values reported in PubChem BioAssay AID602191 (Broad Institute, 2012).
Calls of active or inactive are those of the source.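 Rule for the calls: active = fitted curve reaches 40% activation at a concentration no higher than the top valid tested dose; inconclusive = flat fit between 30% and 70% activation, or poor fit; inactive = uptake decrease, flat fit within 30% of zero, the rest.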

Molecular target: Scavenger receptor class B member 1 (Mus musculus) (UniProt Q61009)
Assay: enhancers of DiI-HDL lipid transfer via SR-BI – cell-based, ldlA[mSR-BI] CHO, DiI fluorescence, cherry-pick, dose response (AID 602191);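 note: cell fluorescence from internalized DiI-labeled HDL after washing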;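 for AC40: potency of activators raising HDL uptake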;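 for activation (HDL uptake increase): 0% = median of DMSO wells and 100% = twice the DMSO signal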
Conditions: ldlA[mSR-BI] CHO cells, 3 h, at 35 µM (top of the series)

Sequence of Scavenger receptor class B member 1 (Mus musculus) (Q61009 whole entry, looked up): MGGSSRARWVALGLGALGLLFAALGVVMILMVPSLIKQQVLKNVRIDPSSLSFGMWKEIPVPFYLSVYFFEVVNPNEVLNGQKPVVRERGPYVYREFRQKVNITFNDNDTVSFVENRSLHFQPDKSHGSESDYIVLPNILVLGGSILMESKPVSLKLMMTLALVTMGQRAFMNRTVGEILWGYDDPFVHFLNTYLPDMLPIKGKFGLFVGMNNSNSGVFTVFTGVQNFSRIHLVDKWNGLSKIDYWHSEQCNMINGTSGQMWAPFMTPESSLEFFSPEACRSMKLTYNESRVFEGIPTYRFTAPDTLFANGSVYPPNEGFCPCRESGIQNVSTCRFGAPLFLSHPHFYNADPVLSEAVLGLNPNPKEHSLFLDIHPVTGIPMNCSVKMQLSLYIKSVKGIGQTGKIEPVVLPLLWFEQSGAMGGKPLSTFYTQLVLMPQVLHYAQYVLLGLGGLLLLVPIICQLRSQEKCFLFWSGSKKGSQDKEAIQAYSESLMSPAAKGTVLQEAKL

| SMILES | activation (HDL uptake increase) |
| --- | --- |
| CCS(=O)(=O)c1nc(S(=O)(=O)c2ccc(C)cc2)c(N2CCC(C)CC2)s1 | -8.15% (inactive) |
| Cn1cc(CN2CCC(O)CC2)c(-c2ccc(Oc3ccccc3)cc2)n1 | -5.7% (inactive) |
| C=CCC[C@@H](Cc1ccc(F)cc1)C(=O)OC[C@@H](Cc1c[nH]c2ccccc12)NC(=O)[C@@H](CC=C)CC(=O)N[C@@H](CO)Cc1ccccc1 | 47.8% (inactive) |
| Cc1cccc(N2CCN(C(=S)c3ccc(-c4ccccc4[N+](=O)[O-])o3)CC2)c1 | -6.03% (inactive) |
| COc1ccccc1Cc1nnnn1CC(=O)O | -7.37% (inactive) |
| CC1(C)CC(=O)C2=C(C1)N(CC1CCCO1)C(=O)C2(O)C(F)(F)F (stereo unspecified) | 8.29% (inactive) |
| Cc1ccc(OCCC(=O)OCC(=O)NNC(=O)c2ccccc2)cc1 | 8.09% (inactive) |
| C=CCn1c(C(CCC(C)C)CC(C)(C)O)n[nH]c1=S (stereo unspecified) | 7.72% (inactive) |
| O=C1C(=O)N(CNc2cccnc2)c2ccccc21 | -7.96% (inactive) |
| CN1OC[C@@H]2CN[C@H](c3cccc(-c4cc(Cl)cc(Cl)c4)c3)C[C@@H]21 | 5.62% (inactive) |
| CC(C)CC(CO)N1CCN(C(=O)c2cccc(C(F)(F)F)c2)CCC1=O (stereo unspecified) | -7.8% (inactive) |
| COCCCNC(=O)C1CCC(CNS(=O)(=O)c2ccc3c(c2)N(C(C)=O)CCO3)CC1 (stereo unspecified) | 7.18% (inactive) |
| CC(C)OC(=O)C1C(=O)CC(C)(O)C(C(=O)OC(C)C)C1c1cccc([N+](=O)[O-])c1 (stereo unspecified) | -0.289% (inactive) |
| CCCCC(=O)OCC(=O)C1(O)Cc2c(O)c3c(c(O)c2C(OC2CC(NC(=O)C(F)(F)F)C(O)C(C)O2)C1)C(=O)c1c(OC)cccc1C3=O (stereo unspecified) | 16.6% (inactive) |
| O=C(CNC(=O)c1cncc(Br)c1)Nc1ccc(F)c(F)c1F | -11% (inactive) |
| CCOC(=O)C1CCN(S(=O)(=O)c2cc(C(=O)N3CCCCC3)ccc2OC)CC1 | -3.08% (inactive) |
| COc1ccccc1N(CC(=O)Nc1cc(C)on1)S(=O)(=O)c1cccc(C(F)(F)F)c1 | 1.11% (inactive) |
| Cc1ccc(NC(=O)CSCC(N)=O)cc1C | -9.19% (inactive) |

Results, then the compound that gave them:

| activation (HDL uptake increase) | SMILES |
| --- | --- |
| -5.02% (inactive) | O=C(C1CCC(=O)N(C2CCCC2)C1)N1CCN(Cc2cccc(Cl)c2)CC1 (stereo unspecified) |
| -2.88% (inactive) | O=C(N1CCN(S(=O)(=O)c2ccc(Cl)cc2)CC1)n1ccnc1 |
| -9.17% (inactive) | Cc1ccc(S(=O)(=O)N(c2cccc(C)c2)C2CCS(=O)(=O)C2)cc1 (stereo unspecified) |
| -6.75% (inactive) | Cc1cccn2c(CN[C@@H]3CCCC[C@H]3c3ccccc3)c(C(=O)N3CCOCC3)nc12 |
| 0.848% (inactive) | O=C(C1=C[C@@H](c2ccc(Br)cc2)C[C@@H](OCc2ccc(CO)cc2)O1)N1CCN(Cc2ccccc2)CC1 |
| -0.287% (inactive) | CN1CCN(C(=O)C2CCN(S(=O)(=O)c3ccc4c(c3)oc(=O)n4C)CC2)CC1 |
| 6.32% (inactive) | CCc1cccc(N(C(=O)c2csnn2)C(C(=O)NC2CCCC2)c2cccnc2)c1 (stereo unspecified) |
| -4.64% (inactive) | COc1ccc(CN(C(=O)c2cnccn2)C(C(=O)Nc2ccc(F)cc2)c2ccccc2)cc1 (stereo unspecified) |

Same assay, conditions: ldlA[mSR-BI] CHO cells, DiI-HDL uptake fluorescence, 3 h

| SMILES | AC40 |
| --- | --- |
| FC(F)(F)c1ccc(C2[C@H]3CN(Cc4cccnc4)[C@H](c4ccccc4)C34CC2(c2cccnc2)C4)cc1 (stereo partly specified) | > 35 µM (inactive) |
| C[C@H](CO)N1C[C@H](C)[C@@H](CN(C)S(=O)(=O)c2ccccc2)Oc2ccc(NC(=O)Nc3ccc(C(F)(F)F)cc3)cc2C1=O | 34.6 µM |
| COc1ccc2sc(-c3ccccc3OC)c(-c3ccc(OCCN4CCCC4)cc3)c2c1 | > 35 µM (inactive) |

Now from value to compound:

| AC40 | SMILES |
| --- | --- |
| > 35 µM (inactive) | CCOC(=O)C(NC(=O)CC(C)C)(Nc1sc2c(c1C(N)=O)CCCC2)C(F)(F)F (stereo unspecified) |
| > 35 µM (inactive) | Cc1c(CCOC(=O)C23CC4(C)CC(C)(CC(C)(C4)C2)C3)sc[n+]1CC(=O)c1ccccc1 |
